Source: ChEMBL document CHEMBL1201862, “PubChem BioAssay data set” (2004)
Calls of active or inactive are those of the source.

Experiments:
[1] = target: T1, G-protein coupled receptor 55 (Homo sapiens, UniProt Q9Y2T6); assay: GPR55 antagonists blocking LPI-driven arrestin recruitment, primary screen, imaging, U2OS, beta-arrestin-GFP, LPI agonist (AID 2013); format: functional;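 note: antagonist potency measured as reduced agonist-driven arrestin aggregation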
Cannabinoid receptor 2 [2] = target: T2, Cannabinoid receptor 2 (Homo sapiens, UniProt P34972); assay: SAR analysis of agonists of the Cannabinoid Receptor 2 using an Image-Based Assay. [Related pubchem assays (depositor defined):AID2013, AID2026]; format: functional
Cannabinoid receptor 1 [3] = target: T3, Cannabinoid receptor 1 (Homo sapiens, UniProt P21554); assay: SAR analysis of agonists of the Cannabinoid Receptor 1 using an Image-Based Assay - Set 2. [Related pubchem assays (depositor defined):AID2013, AID2026]; format: functional
[4] = target: T1, G-protein coupled receptor 55; assay: GPR55 antagonist potency of analogs, SAR follow-up, imaging, U2OS, beta-arrestin-GFP, LPI agonist, set 2 (AID 2820); format: functional
[5] = target: T4, G-protein coupled receptor 35 (Homo sapiens, UniProt Q9HC97); assay: SAR analysis of Agonists of the GPR35 Receptor using an Image-Based Assay - Set 2. [Related pubchem assays (depositor defined):AID2013, AID2026]; format: functional
Cannabinoid receptor 1 [6] = target: T3, Cannabinoid receptor 1; assay: SAR analysis of antagonists of the Cannabinoid Receptor 1 using an Image-Based Assay - Set 2. [Related pubchem assays (depositor defined):AID2013, AID2026]; format: functional
[7] = target: T4, G-protein coupled receptor 35; assay: SAR analysis of Antagonists of the GPR35 Receptor using an Image-Based Assay - Set 3. [Related pubchem assays (depositor defined):AID2013, AID2026]; format: functional
Cannabinoid receptor 2 [8] = target: T2, Cannabinoid receptor 2; assay: SAR analysis of antagonists of the Cannabinoid Receptor 2 using an Image-Based Assay. [Related pubchem assays (depositor defined):AID2013, AID2026]; format: functional
[9] = C. albicans growth with fluconazole, confirmation, fluorescence, retest (AID 2467); format: functional, cell-based
[10] = target: Intestinal-type alkaline phosphatase (Mus musculus, UniProt P24822); assay: PubChem AID 488785; format: functional
[11] = target: T5, Alkaline phosphatase, tissue-nonspecific isozyme (Homo sapiens, UniProt P05186); assay: TNAP enzyme inhibition by screening hits, dose response, selectivity assay for mouse IAP inhibitor project, biochemical, human TNAP, uHTS hits (AID 488906); format: functional
T5 sequence (P05186 whole entry): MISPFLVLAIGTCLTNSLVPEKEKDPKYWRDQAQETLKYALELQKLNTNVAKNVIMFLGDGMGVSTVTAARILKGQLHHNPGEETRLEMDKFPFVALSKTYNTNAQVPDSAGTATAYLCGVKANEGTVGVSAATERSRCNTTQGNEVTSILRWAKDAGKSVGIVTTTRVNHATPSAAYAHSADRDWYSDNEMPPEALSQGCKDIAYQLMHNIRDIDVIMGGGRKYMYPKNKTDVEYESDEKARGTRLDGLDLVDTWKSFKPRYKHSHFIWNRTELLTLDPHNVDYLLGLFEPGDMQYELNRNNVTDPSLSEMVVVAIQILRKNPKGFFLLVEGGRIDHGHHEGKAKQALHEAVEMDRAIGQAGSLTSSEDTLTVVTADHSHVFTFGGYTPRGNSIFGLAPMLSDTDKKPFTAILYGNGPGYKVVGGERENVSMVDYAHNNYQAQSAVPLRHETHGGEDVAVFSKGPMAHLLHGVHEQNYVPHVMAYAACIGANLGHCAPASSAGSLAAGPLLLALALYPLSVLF

[12] = NIH-3T3 fibroblast cytotoxicity, dose response, cytotoxicity control, cell-based, fluorescence, Alamar Blue, secondary assay (AID 2327); format: functional;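 note: NIH-3T3 mouse fibroblasts cultured with fluconazole at 8 µg/mL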
Large T antigen = Large T antigen (Simian virus 40, UniProt P03070); format: functional, Betapolyomavirus macacae;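 note: Confirmatory-stage PubChem screen for compounds that inhibit SV40 T antigen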
SUMO-activating enzyme [13] = target: T6, SUMO-activating enzyme (Homo sapiens, UniProt Q9UBT2); assay: SUMOylation inhibitor hit validation, confirmation, SUMOylation inhibitor project, biochemical, AlphaScreen (AID 2018); format: functional
[14] = target: T7, Histone-lysine N-methyltransferase NSD2 (Homo sapiens, UniProt O96028); format: biochemical
T7 sequence (O96028 whole entry): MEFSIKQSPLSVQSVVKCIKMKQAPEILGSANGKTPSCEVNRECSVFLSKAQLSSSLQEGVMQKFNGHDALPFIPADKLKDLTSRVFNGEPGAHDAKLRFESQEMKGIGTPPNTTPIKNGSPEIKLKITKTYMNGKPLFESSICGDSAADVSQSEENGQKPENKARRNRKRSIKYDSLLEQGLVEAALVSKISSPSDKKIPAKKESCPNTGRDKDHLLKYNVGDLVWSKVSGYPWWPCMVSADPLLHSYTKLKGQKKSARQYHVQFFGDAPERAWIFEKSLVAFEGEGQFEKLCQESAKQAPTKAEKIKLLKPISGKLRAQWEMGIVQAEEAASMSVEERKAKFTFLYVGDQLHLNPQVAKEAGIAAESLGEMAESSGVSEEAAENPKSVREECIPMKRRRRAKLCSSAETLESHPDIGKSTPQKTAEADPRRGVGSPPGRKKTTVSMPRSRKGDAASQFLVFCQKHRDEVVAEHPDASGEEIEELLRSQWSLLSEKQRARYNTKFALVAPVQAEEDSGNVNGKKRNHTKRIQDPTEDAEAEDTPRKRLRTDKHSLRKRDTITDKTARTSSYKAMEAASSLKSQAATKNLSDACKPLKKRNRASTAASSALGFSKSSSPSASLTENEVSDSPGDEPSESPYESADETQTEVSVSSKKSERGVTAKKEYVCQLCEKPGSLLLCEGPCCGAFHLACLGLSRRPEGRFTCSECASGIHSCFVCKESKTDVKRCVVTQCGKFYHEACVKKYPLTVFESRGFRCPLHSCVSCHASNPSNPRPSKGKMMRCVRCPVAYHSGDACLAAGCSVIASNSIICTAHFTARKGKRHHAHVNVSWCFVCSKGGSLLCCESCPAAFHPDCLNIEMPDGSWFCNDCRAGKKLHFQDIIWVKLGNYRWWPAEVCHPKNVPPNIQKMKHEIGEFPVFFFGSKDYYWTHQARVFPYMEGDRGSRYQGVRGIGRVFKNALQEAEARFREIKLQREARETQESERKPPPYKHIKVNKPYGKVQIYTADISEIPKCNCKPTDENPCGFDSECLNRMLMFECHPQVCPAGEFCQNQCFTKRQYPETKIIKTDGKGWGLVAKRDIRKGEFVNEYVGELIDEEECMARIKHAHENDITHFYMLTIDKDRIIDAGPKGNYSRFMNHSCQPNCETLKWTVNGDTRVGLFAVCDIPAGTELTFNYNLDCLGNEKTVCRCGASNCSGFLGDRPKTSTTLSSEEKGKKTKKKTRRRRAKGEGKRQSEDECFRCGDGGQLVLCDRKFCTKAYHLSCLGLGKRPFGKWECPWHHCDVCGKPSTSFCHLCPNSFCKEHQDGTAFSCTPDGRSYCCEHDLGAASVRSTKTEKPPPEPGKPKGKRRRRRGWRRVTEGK

Albumin = Albumin (Bos taurus, UniProt P02769); assay: Counterscreen for inhibitors of T-cell receptor (TCR)-CD3 interaction: Fluorescence-based biochemical high throughput dose response assay to identify inhibitors of T-cell receptor (TCR)-CD3 interaction using a TAMRA-labeled BSA probe.; format: functional
[15] = target: DNA dC->dU-editing enzyme APOBEC-3A (Homo sapiens, UniProt P31941); assay: APOBEC3A DNA deaminase inhibitors, dose response, biochemical (AID 504722); format: functional
SUMO-activating enzyme [16] = target: T6, SUMO-activating enzyme; assay: inhibitors of in vitro SUMOylation cascade, primary screen, biochemical, HTRF, uHTS (AID 2006); format: protein-complex assay
[17] = target: Intestinal-type alkaline phosphatase (Homo sapiens, UniProt P09923); assay: inhibition of human intestinal alkaline phosphatase – biochemical, dose response (AID 488876); format: functional
[18] = target: DNA dC->dU-editing enzyme APOBEC-3G (Homo sapiens, UniProt Q9HC16); assay: Dose Response confirmation of small molecule APOBEC3G DNA Deaminase Inhibitors via a fluorescence-based single-stranded DNA deaminase assay. [Related pubchem assays (depositor defined):AID493012, AID493028]; format: functional
Protein RecA [19] = target: T8, Protein RecA (Mycobacterium tuberculosis, UniProt P9WHJ3); assay: RecA Intein Measured in Biochemical System Using Plate Reader - 2047-02_Inhibitor_Dose_DryPowder_Activity. [Related pubchem assays (depositor defined):AID2223]; design: species or system Mycobacterium tuberculosis H37Rv
T8 sequence (P9WHJ3 whole entry): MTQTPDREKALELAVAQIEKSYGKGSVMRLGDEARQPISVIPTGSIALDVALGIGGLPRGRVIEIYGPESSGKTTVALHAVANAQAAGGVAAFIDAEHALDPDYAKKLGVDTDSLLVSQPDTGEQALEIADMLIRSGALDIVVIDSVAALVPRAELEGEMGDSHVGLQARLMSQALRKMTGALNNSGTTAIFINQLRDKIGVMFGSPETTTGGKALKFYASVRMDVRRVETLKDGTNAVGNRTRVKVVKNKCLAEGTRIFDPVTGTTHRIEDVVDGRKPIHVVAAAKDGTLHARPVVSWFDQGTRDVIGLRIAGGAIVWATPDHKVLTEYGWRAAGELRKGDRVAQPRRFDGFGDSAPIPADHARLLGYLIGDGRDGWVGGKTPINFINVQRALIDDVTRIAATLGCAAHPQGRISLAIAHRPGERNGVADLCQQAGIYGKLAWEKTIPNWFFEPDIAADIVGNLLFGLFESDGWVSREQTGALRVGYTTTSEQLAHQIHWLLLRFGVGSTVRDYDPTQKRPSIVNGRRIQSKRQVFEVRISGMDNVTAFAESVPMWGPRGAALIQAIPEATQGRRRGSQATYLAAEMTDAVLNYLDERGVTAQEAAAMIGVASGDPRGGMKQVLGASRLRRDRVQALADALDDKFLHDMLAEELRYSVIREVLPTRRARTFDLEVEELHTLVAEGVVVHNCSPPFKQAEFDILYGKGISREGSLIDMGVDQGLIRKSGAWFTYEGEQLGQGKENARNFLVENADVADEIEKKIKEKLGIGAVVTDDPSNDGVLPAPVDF

Protein RecA [20] = target: T8, Protein RecA; assay: GFP-RecA MOA-DTT Measured in Biochemical System Using Plate Reader - 2047-05_Inhibitor_Dose_DryPowder_Activity. [Related pubchem assays (depositor defined):AID2223]; design: species or system Mycobacterium tuberculosis H37Rv
[21] = target: T9, Replicative DNA helicase DnaB (Mycobacterium tuberculosis, UniProt P9WMR3); assay: DnaB Intein secondary assay Measured in Biochemical System Using Plate Reader - 2047-04_Inhibitor_Dose_DryPowder_Activity. [Related pubchem assays (depositor defined):AID2223]
T9 sequence (P9WMR3 whole entry): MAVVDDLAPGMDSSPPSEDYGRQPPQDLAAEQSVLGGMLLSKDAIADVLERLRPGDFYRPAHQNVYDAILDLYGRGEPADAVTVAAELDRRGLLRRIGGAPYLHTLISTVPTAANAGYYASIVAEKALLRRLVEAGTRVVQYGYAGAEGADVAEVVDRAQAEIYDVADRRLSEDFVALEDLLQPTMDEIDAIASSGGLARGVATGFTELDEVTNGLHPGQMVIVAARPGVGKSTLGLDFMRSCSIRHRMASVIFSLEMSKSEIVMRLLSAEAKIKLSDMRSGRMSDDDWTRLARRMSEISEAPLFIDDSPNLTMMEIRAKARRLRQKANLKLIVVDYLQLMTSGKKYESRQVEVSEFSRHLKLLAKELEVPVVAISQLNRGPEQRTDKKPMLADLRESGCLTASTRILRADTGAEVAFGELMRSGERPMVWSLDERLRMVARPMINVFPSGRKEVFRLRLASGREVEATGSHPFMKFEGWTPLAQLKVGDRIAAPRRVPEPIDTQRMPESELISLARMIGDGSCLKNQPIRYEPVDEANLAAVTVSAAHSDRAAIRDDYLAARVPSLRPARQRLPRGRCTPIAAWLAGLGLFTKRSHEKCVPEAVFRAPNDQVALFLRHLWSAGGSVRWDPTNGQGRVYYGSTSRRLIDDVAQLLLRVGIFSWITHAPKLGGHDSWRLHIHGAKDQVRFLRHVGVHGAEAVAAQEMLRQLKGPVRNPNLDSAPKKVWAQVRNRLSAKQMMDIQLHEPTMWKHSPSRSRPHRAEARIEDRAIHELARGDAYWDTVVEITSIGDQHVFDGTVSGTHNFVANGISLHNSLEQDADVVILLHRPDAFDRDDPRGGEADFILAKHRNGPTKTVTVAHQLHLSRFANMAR

T2 sequence (P34972 whole entry): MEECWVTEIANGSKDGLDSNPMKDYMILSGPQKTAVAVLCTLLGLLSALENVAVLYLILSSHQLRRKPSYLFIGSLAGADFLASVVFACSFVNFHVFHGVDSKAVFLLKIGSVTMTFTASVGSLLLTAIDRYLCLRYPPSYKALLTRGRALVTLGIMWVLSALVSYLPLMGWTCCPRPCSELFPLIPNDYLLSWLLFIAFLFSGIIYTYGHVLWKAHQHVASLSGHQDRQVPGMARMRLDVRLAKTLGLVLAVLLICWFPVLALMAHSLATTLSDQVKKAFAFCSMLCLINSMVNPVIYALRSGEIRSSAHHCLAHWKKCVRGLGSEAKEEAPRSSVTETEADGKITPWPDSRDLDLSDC
T6 sequence (Q9UBE0 whole entry): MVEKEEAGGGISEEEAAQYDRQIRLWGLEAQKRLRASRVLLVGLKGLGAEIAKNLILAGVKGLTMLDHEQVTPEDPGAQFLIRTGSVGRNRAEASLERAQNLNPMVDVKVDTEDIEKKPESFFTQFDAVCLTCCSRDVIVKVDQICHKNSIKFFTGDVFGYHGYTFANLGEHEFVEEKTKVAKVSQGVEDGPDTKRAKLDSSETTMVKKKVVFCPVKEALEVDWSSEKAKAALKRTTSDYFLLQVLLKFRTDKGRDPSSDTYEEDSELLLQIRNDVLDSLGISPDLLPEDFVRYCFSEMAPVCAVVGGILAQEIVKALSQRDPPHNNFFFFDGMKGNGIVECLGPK
T6 sequence (Q9UBT2 whole entry): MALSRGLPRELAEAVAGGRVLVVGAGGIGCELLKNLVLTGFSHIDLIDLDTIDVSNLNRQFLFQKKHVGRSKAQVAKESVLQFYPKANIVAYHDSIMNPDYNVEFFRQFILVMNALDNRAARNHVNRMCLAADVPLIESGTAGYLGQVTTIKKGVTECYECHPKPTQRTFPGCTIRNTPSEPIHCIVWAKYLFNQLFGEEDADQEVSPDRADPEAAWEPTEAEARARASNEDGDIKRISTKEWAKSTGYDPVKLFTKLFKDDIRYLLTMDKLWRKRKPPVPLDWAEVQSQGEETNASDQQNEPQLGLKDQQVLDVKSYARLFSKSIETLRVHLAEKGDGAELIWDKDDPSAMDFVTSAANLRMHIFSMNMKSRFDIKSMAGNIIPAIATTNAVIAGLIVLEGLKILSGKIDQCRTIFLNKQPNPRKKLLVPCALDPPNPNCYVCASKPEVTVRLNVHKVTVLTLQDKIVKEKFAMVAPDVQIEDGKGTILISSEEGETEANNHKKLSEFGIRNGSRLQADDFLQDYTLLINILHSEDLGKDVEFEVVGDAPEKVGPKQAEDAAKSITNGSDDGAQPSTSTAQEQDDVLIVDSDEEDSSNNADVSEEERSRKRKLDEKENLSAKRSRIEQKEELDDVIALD
T1 sequence (Q9Y2T6 whole entry): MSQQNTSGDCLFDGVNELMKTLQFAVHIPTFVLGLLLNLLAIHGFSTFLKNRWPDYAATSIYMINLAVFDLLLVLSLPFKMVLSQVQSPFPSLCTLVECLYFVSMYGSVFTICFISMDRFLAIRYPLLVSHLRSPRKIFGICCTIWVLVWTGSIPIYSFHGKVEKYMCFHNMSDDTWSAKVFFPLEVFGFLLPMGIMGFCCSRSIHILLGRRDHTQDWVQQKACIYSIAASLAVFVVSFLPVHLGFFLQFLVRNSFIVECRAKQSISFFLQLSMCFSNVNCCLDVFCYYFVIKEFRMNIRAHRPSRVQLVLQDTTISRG
T4 sequence (Q9HC97 whole entry): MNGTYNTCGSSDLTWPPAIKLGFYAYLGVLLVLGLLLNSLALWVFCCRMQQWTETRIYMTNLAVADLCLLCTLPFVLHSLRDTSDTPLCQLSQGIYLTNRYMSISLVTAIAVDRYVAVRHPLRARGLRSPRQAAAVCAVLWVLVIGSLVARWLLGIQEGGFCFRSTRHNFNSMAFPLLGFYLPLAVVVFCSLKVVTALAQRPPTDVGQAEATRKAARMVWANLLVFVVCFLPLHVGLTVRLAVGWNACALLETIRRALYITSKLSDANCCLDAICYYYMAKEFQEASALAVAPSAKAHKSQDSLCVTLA
T3 sequence (P21554 whole entry): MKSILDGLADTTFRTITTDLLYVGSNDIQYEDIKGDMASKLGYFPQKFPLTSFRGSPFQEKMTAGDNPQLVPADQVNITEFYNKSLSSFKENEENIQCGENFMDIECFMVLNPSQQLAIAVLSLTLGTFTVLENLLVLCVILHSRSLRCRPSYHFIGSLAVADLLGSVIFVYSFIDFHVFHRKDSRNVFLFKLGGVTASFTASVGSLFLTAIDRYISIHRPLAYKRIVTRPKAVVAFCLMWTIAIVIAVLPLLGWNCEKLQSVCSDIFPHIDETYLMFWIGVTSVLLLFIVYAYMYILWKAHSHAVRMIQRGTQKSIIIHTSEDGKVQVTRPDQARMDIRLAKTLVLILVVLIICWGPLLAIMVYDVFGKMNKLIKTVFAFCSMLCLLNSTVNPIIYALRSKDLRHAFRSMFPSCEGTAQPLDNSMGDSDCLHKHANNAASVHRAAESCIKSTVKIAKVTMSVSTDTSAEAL
Intestinal-type alkaline phosphatase (Homo sapiens, UniProt P09923), sequence (P09923 whole entry): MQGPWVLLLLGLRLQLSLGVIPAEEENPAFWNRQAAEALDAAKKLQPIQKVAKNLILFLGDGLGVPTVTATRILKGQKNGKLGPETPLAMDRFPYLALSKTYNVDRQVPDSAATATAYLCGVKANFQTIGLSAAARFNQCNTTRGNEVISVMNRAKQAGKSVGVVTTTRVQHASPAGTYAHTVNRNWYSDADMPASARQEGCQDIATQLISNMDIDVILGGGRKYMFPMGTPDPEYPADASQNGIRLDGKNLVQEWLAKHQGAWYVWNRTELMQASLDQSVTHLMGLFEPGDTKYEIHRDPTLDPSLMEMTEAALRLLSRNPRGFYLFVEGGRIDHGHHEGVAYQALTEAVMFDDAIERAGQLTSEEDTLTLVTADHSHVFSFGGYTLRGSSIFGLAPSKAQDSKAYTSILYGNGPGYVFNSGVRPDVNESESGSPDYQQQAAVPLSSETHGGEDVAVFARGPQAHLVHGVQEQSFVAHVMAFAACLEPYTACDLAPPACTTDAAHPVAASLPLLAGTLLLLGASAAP
Albumin, sequence (P02769 whole entry): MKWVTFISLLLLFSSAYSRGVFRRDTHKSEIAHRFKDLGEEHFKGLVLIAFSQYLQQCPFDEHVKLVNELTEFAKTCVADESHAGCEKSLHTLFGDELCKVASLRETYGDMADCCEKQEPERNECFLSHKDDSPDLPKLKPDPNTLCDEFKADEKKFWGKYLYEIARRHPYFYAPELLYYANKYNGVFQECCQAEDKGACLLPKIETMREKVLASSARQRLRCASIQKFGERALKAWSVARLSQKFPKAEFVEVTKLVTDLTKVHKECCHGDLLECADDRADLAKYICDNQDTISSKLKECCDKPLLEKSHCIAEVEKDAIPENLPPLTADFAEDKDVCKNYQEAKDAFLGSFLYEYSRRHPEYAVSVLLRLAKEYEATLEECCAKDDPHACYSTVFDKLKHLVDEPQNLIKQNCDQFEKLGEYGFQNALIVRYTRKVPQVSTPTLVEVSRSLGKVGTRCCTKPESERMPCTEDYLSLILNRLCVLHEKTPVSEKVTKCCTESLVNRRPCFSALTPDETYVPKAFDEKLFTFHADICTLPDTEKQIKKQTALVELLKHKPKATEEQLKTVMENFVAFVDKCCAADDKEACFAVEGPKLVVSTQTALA
DNA dC->dU-editing enzyme APOBEC-3A, sequence (P31941 whole entry): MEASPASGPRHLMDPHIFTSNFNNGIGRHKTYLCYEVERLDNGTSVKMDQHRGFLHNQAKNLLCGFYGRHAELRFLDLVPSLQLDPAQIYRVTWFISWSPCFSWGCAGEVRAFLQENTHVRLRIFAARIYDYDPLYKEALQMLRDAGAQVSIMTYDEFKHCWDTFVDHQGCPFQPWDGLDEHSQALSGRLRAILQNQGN
DNA dC->dU-editing enzyme APOBEC-3G, sequence (Q9HC16 whole entry): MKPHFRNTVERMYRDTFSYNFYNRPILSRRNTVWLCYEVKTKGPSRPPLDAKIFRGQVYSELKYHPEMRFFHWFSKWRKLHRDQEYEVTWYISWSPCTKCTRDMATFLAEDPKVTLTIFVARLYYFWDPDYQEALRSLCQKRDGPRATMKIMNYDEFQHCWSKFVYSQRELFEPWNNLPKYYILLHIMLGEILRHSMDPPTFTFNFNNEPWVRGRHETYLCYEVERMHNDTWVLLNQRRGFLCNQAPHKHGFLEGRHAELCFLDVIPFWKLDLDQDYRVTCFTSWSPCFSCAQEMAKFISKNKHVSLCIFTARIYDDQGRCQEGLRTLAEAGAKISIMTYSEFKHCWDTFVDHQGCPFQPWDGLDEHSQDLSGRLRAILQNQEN
Intestinal-type alkaline phosphatase (Mus musculus, UniProt P24822), sequence (P24822 whole entry): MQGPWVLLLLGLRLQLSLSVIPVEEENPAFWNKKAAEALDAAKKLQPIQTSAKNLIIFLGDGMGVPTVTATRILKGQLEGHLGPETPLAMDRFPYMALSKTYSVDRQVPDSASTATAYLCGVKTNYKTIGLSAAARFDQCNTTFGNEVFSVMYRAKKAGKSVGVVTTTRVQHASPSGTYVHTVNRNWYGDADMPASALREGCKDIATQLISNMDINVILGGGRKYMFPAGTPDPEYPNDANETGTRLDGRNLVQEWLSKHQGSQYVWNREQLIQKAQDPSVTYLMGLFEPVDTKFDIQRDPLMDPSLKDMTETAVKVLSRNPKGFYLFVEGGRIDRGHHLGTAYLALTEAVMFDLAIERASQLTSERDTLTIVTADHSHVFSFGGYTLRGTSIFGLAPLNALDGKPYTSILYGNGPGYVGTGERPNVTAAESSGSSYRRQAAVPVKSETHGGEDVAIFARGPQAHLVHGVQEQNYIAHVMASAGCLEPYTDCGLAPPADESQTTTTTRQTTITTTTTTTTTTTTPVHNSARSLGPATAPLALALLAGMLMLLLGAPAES

## COC(=O)C1=C(N)c2c(F)cccc2C1(C#N)c1ccc(F)cc1 (stereo not drawn)
[1]
  IC50: 1.26 µM (active)
Cannabinoid receptor 2 [2]
  EC50: > 32 µM (inactive)
Cannabinoid receptor 1 [3]
  EC50: > 32 µM (inactive)
[4]
  IC50: 1.14 µM (active)
[5]
  EC50: > 32 µM (inactive)
Cannabinoid receptor 1 [6]
  IC50: 30.7 µM (inactive)
[7]
  IC50: > 32 µM (inactive)
Cannabinoid receptor 2 [8]
  IC50: > 32 µM (inactive)

## N#C/C(=C\c1ccc(O)c(O)c1)C(=O)Nc1cccc2ncccc12
[9]
  EC50: > 38 µM (not active)
[10]
  IC50: 14.3 µM (active)
[11]
  IC50: 34.6 µM (active)
[12]
  EC50: > 150 µM (inactive)
Large T antigen
  IC50: 27.8 µM (active)
SUMO-activating enzyme [13]
  IC50: 1.27 µM (active)
[14]
  AC50: 3.18 µM (active)
Albumin
  IC50: > 94 µM (inactive)
[15]
  IC50: > 100 µM (inactive)
SUMO-activating enzyme [16]
  IC50: 21.4 µM (active)
[17]
  IC50: 12.5 µM (active)
[18]
  IC50: 3.81 µM (active)

## Cc1oc2c(c1C(=O)NCc1ccccn1)C(=O)c1ccccc1C2=O
Protein RecA [19]
  AC50: 0.074 µM (active)
Protein RecA [20]
  AC50: 9.92 µM (active)
[21]
  AC50: 1.07 µM (active)
